Eight molecules from US7514429B2, “Benzoxazinone-derived compounds, their preparation and use as medicaments” (ESTEVE Laboratorios Dr. Esteve S.A., priority 2002, dated 2009) can be followed below.

One series addresses T1, rat Y5 receptor (Rattus norvegicus, UniProt Q63634).
T1 construct: expressed in transfected cells; host or cells: C6 cells
T1 sequence (Q63634 1-445): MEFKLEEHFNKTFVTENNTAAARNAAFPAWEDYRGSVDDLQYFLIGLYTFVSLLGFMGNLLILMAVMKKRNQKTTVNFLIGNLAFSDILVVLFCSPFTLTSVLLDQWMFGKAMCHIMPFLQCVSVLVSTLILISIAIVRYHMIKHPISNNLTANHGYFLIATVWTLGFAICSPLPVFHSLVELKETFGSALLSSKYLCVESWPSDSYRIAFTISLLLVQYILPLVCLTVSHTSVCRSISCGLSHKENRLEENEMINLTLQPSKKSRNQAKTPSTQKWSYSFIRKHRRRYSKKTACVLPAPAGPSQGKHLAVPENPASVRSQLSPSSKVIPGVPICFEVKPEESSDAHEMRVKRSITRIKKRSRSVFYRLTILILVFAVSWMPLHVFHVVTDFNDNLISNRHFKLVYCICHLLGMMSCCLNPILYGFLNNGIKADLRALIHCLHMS
Put plainly: Neuropeptide Y5 receptor binding, Method (II), C6 cells transfected with the rat Y5 receptor. To be noted: [125I]-PYY, Y5 rat recombinant receptor, cell C6. Here is the method:
Neuropeptide Y5 Receptor Binding Studies:
The methods used for membrane preparation and binding are similar to those described by Y. Hu, B. T. Bloomquist et al. in Y. Hu, B. T. Bloomquist et al., The Journal of Biological Chemistry, 1996, 271, 26315-26319 with modifications. Said literature description is herewith incorporated by reference and forms part of the disclosure. Cells C6 were transfected with the rat Y5 receptor. The cells were grown under standard culture conditions in 150 cm^2 dishes and they were harvested using a rubber scraper and 10 ml PBS. The cells from five dishes were collected and centrifuged 2.500 g for 5 min (4° C). The pellet was washed by resuspending in 3 ml buffer (Tris-HCl 10 mM, pH 7.4), homogenized using a Potter S homogenizer, 10 strokes at 600 rpm and centrifuged 48.000 g for 20 min (4° C.). The pellet was resuspended in 8 ml membrane buffer (Tris-HCl 25 mM, NaCl 120 mM, KCl 5 mM, KH2PO4 1.2 mM, CaCl2 2.5 mM, MgSO4 1.2 mM, BSA 0.15 mg/ml, Bacitracine 0.5 mg/ml, pH 7.4) and rehomogenized using the Potter S, 10 strokes at 600 rpm. The protein concentration in the incubation was 40 μg/ml. The radioligand was [^125I]-PYY (100 pM) in a total incubation volume of 200 μl. Following incubation at 25° C. for 2 h, the reaction was stopped by addition of 5 ml ice-cold buffer (Tris-HCl 25 mM, NaCl 120 mM, KCl 5 mM, KH2PO4 1.2 mM, CaCl2 2.5 mM, MgSO4 1.2 mM, pH 7.4) and rapid filtration in a Harvester Brandell Cell using filters (Schleicher & Schuell G F 3362) pretreated for two hours with 0.5% polyethyleneimine. Filters were washed one time with 5 ml ice-cold buffer. The filters were placed into plastic scintilation vials and 5 ml scintilation cocktail Ecoscint H were added. The quantity of radioactivity present was determined in a Wallac Winspectral 1414 counter. Non specific binding was determined in the presence of 1 μM de pNPY. All binding assays were done in triplicate.

A further series has as its system rats. The series is described as follows: Nocturnal feeding (food intake measurement). It is filed as in vivo, rat. To be noted: vs. control group. Here is the method: Behavioural Models (Food Intake Measurements)
In both test, animals rats (Male W, 200-270 g, obtained from Harlan, S. A) were used. The rats are acclimatized to the animal facility for at least 5 days before being subjected to any experimental procedure. During this period, animals were housed in groups of five in translucid cages and provided with food and water ad libitum. At least 24 hours before the tests, animals are adapted to single-housing conditions.
Food intake is measured in home cages in order to minimize non-specific stress effects on food intake resulting from changes in housing conditions. Food and water is available ad libitum. Immediately before lights turn off, rats are weighed, randomized and dosed (orally or intraperitoneally), either with vehicle or selected benzoxacine-compounds of general formula (I). Thereafter, rats are returned to home cages and food left on top covers is measured. Remaining food and animal's weight is measured next morning.
The above mentioned methods are described in Ants Kask et al., Europan Journal of Pharmacology 414 (2001) 215-224 and Turnbull et al., Diabetes, Vol. 51, August 2002, which are hereby incorporated by reference and form part of the disclosure.

The target of another series is T2, Neuropeptide Y2 (Rattus norvegicus, UniProt Q9ERC0).
T2 construct: their brains are rapidly removed and the hypoccampus is dissected; from tissue; host or cells: rat hippocampus membranes (male Wistar rats)
T2 sequence (Q9ERC0 1-381): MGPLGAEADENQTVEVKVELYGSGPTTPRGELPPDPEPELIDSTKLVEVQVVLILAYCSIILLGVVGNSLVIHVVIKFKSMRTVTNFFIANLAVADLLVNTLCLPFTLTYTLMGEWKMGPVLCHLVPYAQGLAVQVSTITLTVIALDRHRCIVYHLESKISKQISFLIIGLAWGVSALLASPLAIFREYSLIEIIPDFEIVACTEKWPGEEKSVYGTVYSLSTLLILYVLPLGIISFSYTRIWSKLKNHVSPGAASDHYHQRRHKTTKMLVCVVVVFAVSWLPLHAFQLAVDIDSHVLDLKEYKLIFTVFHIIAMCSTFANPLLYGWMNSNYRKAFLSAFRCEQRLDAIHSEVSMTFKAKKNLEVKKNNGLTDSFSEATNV
Put plainly: Binding to Neuropeptide Y2, Method (III), rat hypoccampus membranes. The conditions noted are these: [125I]-PYY(3-36). As to the method: Binding to Neuropeptide Y2
Said literature description is herewith incorporated by reference and forms part of the disclosure.
Male Wistar rats are sacrificed by decapitation, their brains are rapidly removed and the hypoccampus is dissected. Homogenization is performed in cold conditions in the buffer: 120 mM NaCl, 4.7 mM KCl, 2.2 mM CaCl2, 1.2 mM KH2PO4, 1.2 mM MgSO4, 25 mM NaHCO3, 5.5 mM glucose, pH 7.4, by means of a Ultra-Turrax homogenizer for 15 seconds at 13,500 rpm. The ratio between fresh tissue weight and buffer volume is of ten times. The membrane is centrifuged for 10 min at 48,000 g. The supernatant is discarded and the pellet is washed, resuspended and recentrifuged two more times. The final membrane resuspension is performed in the buffer: 120 mM NaCl, 4.7 mM KCl, 2.2 mM CaCl2, 1.2 mM KH2PO4, 1.2 mM MgSO4, 25 mM NaHCO3, 5.5 mM glucose, 0.1% BSA, 0.05% bacitracin, pH 7.4, at a 90 ml/g ratio of fresh issue. […] Incubation volume: 500 μl. […] The filters are cold-washed three times with three milliliters of the same buffer used in homogenization. […] Non-specific binding is determined in the presence of 1 μM of pNPY (Neuropeptide Y of porcine origin). The assays are performed in triplicate.

SMILES strings stand for the structures. Structures can show the parent of a compound that is named as a salt.

Usually IC50 stands for the midpoint of a concentration-inhibition curve. With `COc1ccc2c(c1)COC(=O)N2C1CCN(CC(=O)Nc2ccc3sc(C)nc3c2)CC1` [Example 116, 2-[4-(6-Methoxy-2-oxo-4H-benzo[d][1,3]oxazin-1-yl)-piperidin-1-yl]-N-(2-methyl-benzothiazole-5-yl)-acetamide], on rat Y5 receptor, the IC50 stood at 106 nM.
What is called melting point is the temperature of the solid-liquid transition. The molecule `Cc1cccc2c1N(C1CCN(CC(=O)Nc3ccc4c(c3)-c3ccccc3C4=O)CC1)C(=O)OC2` (as salt: HCl) [Example 35, 2-[4-(8-Methyl-2-oxo-4H-benzo[d][1,3]oxazin-1-yl)-piperidin-1-yl]-N-(9-oxo-9H-fluoren-3-yl)-acetamide hydrochloride] gave a melting point of 233 to 236 °C.
Regarding `COc1cccc2c1COC(=O)N2C1CCN(CC(=O)Nc2ccc3sc4ccccc4c3c2)CC1` [Example 107, N-Dibenzothiophene-2-yl-2-[4-(5-methoxy-2-oxo-4H-benzo[d][1,3]oxazin-1-yl)-piperidin-1-yl]-acetamide], the IC50 at rat Y5 receptor amounted to 23.5 nM.
As to `CCn1c2ccccc2c2cc(NC(=O)CN3CCC(N4C(=O)OCc5ccccc54)CC3)ccc21` [Example 18, N-(9-Ethyl-9H-carbazol-3-yl)-2-[4-(2-oxo-4H-benzo[d][1,3]oxazin-1-yl)-piperidin-1-yl]-acetamide hydrochloride], in the series on rats (40 mg/kg i.p. administration), the “Effect: body weight of treated animals” value is “reduces body weight of” and the “Effect: food intake” value was “Decreases food intake and”.
`Cc1cccc2c1N(C1CCN(CC(=O)Nc3ccc4c(c3)-c3ccccc3C4=O)CC1)C(=O)OC2` [Example 35, 2-[4-(8-Methyl-2-oxo-4H-benzo[d][1,3]oxazin-1-yl)-piperidin-1-yl]-N-(9-oxo-9H-fluoren-3-yl)-acetamide hydrochloride]: in the series with rats (20 mg/kg i.p. administration), the “Effect: body weight of treated animals” value is “reduces body weight of” and the “Effect: food intake” value is reported as “Decreases food intake and”.
A word on the Ki: it is the equilibrium dissociation constant of an inhibitor or competing ligand from its target. Lower therefore signals higher affinity. Molecule `O=C(CN1CCC(N2C(=O)OCc3ccccc32)CC1)Nc1ccc2c(c1)-c1ccccc1C2=O` [Example 3, 2-[4-(2-oxo-4H-benzo[d][1,3]oxazin-1-yl)-piperidin-1-yl]-N-(9-oxo-9H-fluoren-3-yl)-acetamide hydrochloride] displayed a Ki at Neuropeptide Y2 greater than 1000 nM.
Regarding `Cc1nc2cc(NC(=O)CN3CCC(N4C(=O)OCc5cc(F)ccc54)CC3)ccc2s1` [Example 114, 2-[4-(6-Fluoro-2-oxo-4H-benzo[d][1,3]oxazin-1-yl)-piperidin-1-yl]-N-(2-methyl-benzothiazole-5-yl)-acetamide], the IC50 on rat Y5 receptor turned out to be 40.7 nM.
In turn, `Cc1ccc2c(c1)COC(=O)N2C1CCN(CC(=O)Nc2ccc3c(c2)-c2ccccc2C3=O)CC1` [Example 20, 2-[4-(6-methyl-2-oxo-4H-benzo[d][1,3]oxazin-1-yl)-piperidin-1-yl]-N-(9-oxo-9H-fluoren-3-yl)-acetamide hydrochloride] yielded a Ki on Neuropeptide Y2 greater than 1000 nM. Further, in the series with rats (40 mg/kg i.p. administration), the “Effect: body weight of treated animals” value is listed as “reduces body weight of” and the “Effect: food intake” value was “Decreases food intake and”.
